Laboratory results: the supplement of paper PMC10307832

Compound: COc1nc(N)nc2c1ncn2[C@@H]1O[C@H](CO)[C@@H](O)[C@@H]1O [Nelarabine] + Cc1nc(NC(=O)N2CCC[C@H]2C(N)=O)sc1-c1ccnc(C(C)(C)C(F)(F)F)c1 [Alpelisib] (partner 2 µM)
Test: relative viability (nuclei count vs DMSO), 5 days (fraction); higher = more cells survive
Details: first compound 0.01 µM
Method in brief: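 Relative viability is defined as nuclei in treated wells over nuclei in vehicle wells. Duplicate plates were run and medians reported. Lung cancer cell lines in 1536-well plates were dosed by pin tool one day after seeding, with one drug or with a fixed anchor-drug dose plus five library-drug doses (not always all listed) in √10 steps, and nuclei were counted after 5 days.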

Cell Line	relative viability
201T	1.06
A549	0.885
A-427	0.851
ABC-1	1.06
BEN	1.53
CAL-12T	1.86
COR-L23	0.969
COR-L 105	1.15
Calu-6	1.1
EBC-1	0.86
EKVX	0.958
EPLC-272H	0.986
H3255	0.859
HARA	0.925
HCC-15	1.09
HCC-44	0.888
HCC-78	0.349
HCC-366	0.468
HCC-827	0.999
HOP-62	1.12

Cell Line	relative viability
IA-LM	0.928
LC-2-ad	0.959
LCLC-97TM1	0.277
LCLC-103H	1.01
LK-2	1.58
LOU-NH91	0.74
LU99A	0.517
NCI-H520	1.16
NCI-H661	0.497
NCI-H1299	1.16
NCI-H1563	0.956
NCI-H1703	0.395
NCI-H1792	0.908
NCI-H2009	1.25
NCI-H2023	0.634
NCI-H2228	0.882
SK-LU-1	1.36
SK-MES-1	1.01
SW 1573	0.57
UMC-11	1.1

Same assay, conditions: first compound 0.03162 µM

Cell Line	relative viability
201T	1.02
A549	0.879
A-427	1.06
ABC-1	1.3
BEN	0.95
CAL-12T	1.48
COR-L23	0.768
COR-L 105	1.11
EBC-1	0.829
EKVX	0.772
EPLC-272H	0.932
H3255	0.897
HARA	0.737
HCC-15	0.822
HCC-44	0.876
HCC-78	0.336
HCC-366	0.267
HCC-827	0.848
HOP-62	1.03

Cell Line	relative viability
IA-LM	0.957
LC-2-ad	0.825
LCLC-97TM1	0.211
LCLC-103H	0.989
LOU-NH91	0.704
LU99A	0.415
NCI-H520	0.924
NCI-H661	0.834
NCI-H1299	1.11
NCI-H1563	0.858
NCI-H1703	0.278
NCI-H2009	1.32
NCI-H2023	0.769
NCI-H2228	0.595
SK-LU-1	0.608
SK-MES-1	1
SW 1573	0.848
UMC-11	0.597

Same assay, conditions: first compound 0.1 µM

Cell Line	relative viability
201T	0.968
A549	0.783
A-427	1.11
ABC-1	1.24
BEN	1.1
CAL-12T	1.16
COR-L23	0.743
COR-L 105	1.03
Calu-6	0.979
EBC-1	0.941
EKVX	0.717
EPLC-272H	1.03
H3255	0.644
HARA	0.768
HCC-15	0.847
HCC-44	0.74
HCC-366	0.308
HCC-827	0.839
HOP-62	0.942

Cell Line	relative viability
IA-LM	0.789
LC-2-ad	0.937
LCLC-97TM1	0.216
LCLC-103H	0.985
LK-2	1.13
LOU-NH91	0.661
LU99A	0.519
NCI-H520	1.16
NCI-H661	0.701
NCI-H1299	1.04
NCI-H1563	0.886
NCI-H1703	0.385
NCI-H1792	0.83
NCI-H2009	1.15
NCI-H2023	0.559
SK-LU-1	0.87
SK-MES-1	0.937
SW 1573	0.803
UMC-11	0.909

Same assay, conditions: first compound 0.3162 µM

Cell Line	relative viability
201T	1.03
A549	0.818
A-427	1.07
ABC-1	0.937
BEN	1.06
CAL-12T	1.4
COR-L23	0.869
COR-L 105	1.3
Calu-6	0.972
EBC-1	0.87
EKVX	1.04
EPLC-272H	0.926
H3255	0.687
HARA	1.09
HCC-15	0.983
HCC-44	0.871
HCC-78	0.349
HCC-366	0.517
HCC-827	0.784
HOP-62	0.926

Cell Line	relative viability
IA-LM	0.871
LC-2-ad	0.734
LCLC-97TM1	0.212
LCLC-103H	0.936
LK-2	1.12
LOU-NH91	0.706
LU99A	0.476
NCI-H520	1.03
NCI-H661	0.772
NCI-H1299	1.08
NCI-H1563	1
NCI-H1703	0.366
NCI-H1792	0.688
NCI-H2009	1.2
NCI-H2023	0.594
NCI-H2228	0.815
SK-LU-1	1.22
SK-MES-1	0.964
SW 1573	0.806
UMC-11	1.02

Same assay, conditions: first compound 1 µM

Cell Line	relative viability
201T	1
A549	0.858
A-427	1.05
